Tests used:
[1] = tested on: Staphylococcus epidermidis ATCC 12228; experiment: Agar well diffusion, S. epidermidis; format: cell-based; conditions: ATCC12228, read-out: Staphylococcus epidermidis ATCC 12228 ZOI, 60 µL of 1 mg/mL per well, ZOI including the well (6 mm), ± SD, n = 3, ciprofloxacin disk 5 μg
Experimental: (§1) The antimicrobial potential of the synthesized coumarin–triazole–isatin hybrids was evaluated by the agar well diffusion method. The activity was tested against a variety of Gram-positive bacteria (Staphylococcus aureus ATCC 25923 and ATCC 902710, Staphylococcus epidermidis ATCC 12228, Streptococcus pyogenes ATCC 19615, Enterococcus faecalis ATCC 51299), Gram-negative bacteria (Escherichia coli ATCC 25922, Haemophilus influenzae ATCC 49766, Pseudomonas aeruginosa ATCC 27853, Salmonella typhi ATCC 14028, Neisseria meningitidis ATCC 13090, Neisseria gonorrhoeae ATCC 43069), and fungi (Candida albicans ATCC 60193 and ATCC 90028, Candida orientalis ATCC 6258). All microbial strains were obtained from Microbiologics (St.Cloud, MN, USA).
(§2) The test compounds were dissolved in DMSO to obtain stock solutions (1 mg/mL). Each compound (60 µL) was transferred into wells (6 mm in diameter) that were previously perforated into agar plates inoculated with microbial suspensions standardized to 0.5 McFarland for bacteria and 2 McFarland for Candida spp. DMSO was used as a negative control, while commercial antibiotic disks of novobiocin (5 μg), ampicillin (10 μg), and ciprofloxacin (5 μg) served as positive controls. Antimicrobial activity was assessed by measuring the diameter of zones of inhibition (ZOIs) in millimeters. All tests were conducted in triplicate.

[2] = tested on: Staphylococcus aureus ATCC 25923; experiment: Agar well diffusion, S. aureus; format: cell-based; conditions: for Antibacterial activity in words: agar well diffusion, particularly S. aureus; for zone of inhibition at 1000 µg/mL: Staphylococcus aureus, ATCC25923, 60 µL of 1 mg/mL per well, ZOI including the well (6 mm), ± SD, n = 3, ciprofloxacin disk 5 μg, read-out: Staphylococcus aureus ATCC 25923 ZOI
Experimental: as §1, §2

[3] = molecular target: T1, AChE from Electrophorus electricus (eeAChE) (Electrophorus electricus, UniProt O42275); experiment: biochemical; conditions: for inhibition at 20 µM: read-out: AChE % of Inhibition (Conc. 20 μM); for IC50: average ± standard error (n = 3)
T1 construct: purchased Sigma-Aldrich (St. Louis, MO, USA)
T1 sequence (O42275 24-633): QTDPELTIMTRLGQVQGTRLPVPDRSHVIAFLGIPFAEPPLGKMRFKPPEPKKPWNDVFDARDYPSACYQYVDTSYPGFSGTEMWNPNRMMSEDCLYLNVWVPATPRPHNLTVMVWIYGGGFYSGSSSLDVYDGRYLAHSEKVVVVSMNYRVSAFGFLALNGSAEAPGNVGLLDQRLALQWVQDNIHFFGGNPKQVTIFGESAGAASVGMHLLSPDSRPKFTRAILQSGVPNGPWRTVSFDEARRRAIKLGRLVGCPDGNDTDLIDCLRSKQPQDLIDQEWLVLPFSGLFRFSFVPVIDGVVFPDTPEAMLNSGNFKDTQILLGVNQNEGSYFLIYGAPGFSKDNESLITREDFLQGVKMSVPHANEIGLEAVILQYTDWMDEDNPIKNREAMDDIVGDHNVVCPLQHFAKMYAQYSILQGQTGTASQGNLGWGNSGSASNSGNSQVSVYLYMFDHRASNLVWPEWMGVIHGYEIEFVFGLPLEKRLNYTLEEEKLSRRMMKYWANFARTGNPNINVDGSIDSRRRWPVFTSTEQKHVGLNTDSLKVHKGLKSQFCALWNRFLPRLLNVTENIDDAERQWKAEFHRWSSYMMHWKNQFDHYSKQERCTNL

[4] = molecular target: T2, BChE from equine serum (eqBuChE) (Equus caballus, UniProt P81908); experiment: biochemical; conditions: for inhibition at 20 µM: read-out: BChE % of Inhibition (Conc. 20 μM), 20 μM; for Selectivity BChE/AChE: ratio of AChE and BChE IC50
T2 construct: BChE from equine serum (BChE, EC 3.1.1.8); purchased Sigma-Aldrich (St. Louis, MO, USA); host or cells: equine serum
T2 sequence (P81908 whole entry): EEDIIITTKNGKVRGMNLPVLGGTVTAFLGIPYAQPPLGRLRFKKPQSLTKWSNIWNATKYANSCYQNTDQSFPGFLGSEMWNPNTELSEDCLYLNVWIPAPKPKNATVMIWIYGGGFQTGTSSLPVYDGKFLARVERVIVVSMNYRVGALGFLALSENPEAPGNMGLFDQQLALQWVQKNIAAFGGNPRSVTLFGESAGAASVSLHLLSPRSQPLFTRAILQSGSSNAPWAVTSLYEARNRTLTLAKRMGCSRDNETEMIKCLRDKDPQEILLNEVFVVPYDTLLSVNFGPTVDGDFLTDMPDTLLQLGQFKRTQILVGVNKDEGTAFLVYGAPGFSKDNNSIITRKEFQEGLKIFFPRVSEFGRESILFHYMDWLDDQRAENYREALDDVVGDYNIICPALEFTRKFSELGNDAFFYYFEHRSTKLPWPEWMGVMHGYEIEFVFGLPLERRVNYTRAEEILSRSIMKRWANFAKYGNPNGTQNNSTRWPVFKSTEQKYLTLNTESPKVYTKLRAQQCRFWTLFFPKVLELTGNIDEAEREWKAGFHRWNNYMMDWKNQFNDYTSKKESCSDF
Experimental: The in vitro cholinesterase inhibitory activity of the synthesized hybrid molecules was evaluated using a modified Ellman’s assay, optimized for 96-well microplate application. AChE from Electrophorus electricus (AChE, EC 3.1.1.7), BChE from equine serum (BChE, EC 3.1.1.8), acetylthiocholine iodide (ATCh), butyrylthiocholine iodide (BTCh), and 5,5′-dithiobis(2-nitrobenzoic acid) were purchased from Sigma-Aldrich (St. Louis, MO, USA) and used without further purification.
Test compounds were initially dissolved in dimethylsulphoxide (DMSO) to yield 1 mM stock solutions and subsequently diluted with 0.1 M phosphate buffer (pH 8.0) to prepare working solutions.
For the assay, 20 µL of compound solution was added to 140 µL of 0.1 M phosphate buffer (pH 8.0) in each well, followed by 20 µL of enzyme solution (AChE or BuChE, 100 U/L). After incubation at room temperature for 10 min, the reaction was initiated by adding 10 µL of DTNB (0.01 M) and 10 µL of substrate (ATCh or BTCh, 0.015 M). […] The percentage inhibition of enzyme activity was calculated using the following equation:(1) % Inhibition=Absorbance of control−Apsorbance of sample/Absorbance of control×100 where the absorbance of the control represents the maximum enzyme activity (without inhibition), and the absorbance of the sample corresponds to the enzyme activity in the presence of the tested compound. Appropriate blanks were included to account for background absorbance and to correct for any intrinsic color of the tested compounds.
All experiments were performed in triplicate.

[5] = average ± standard error (n = 3)

Compound	zone of inhibition at 1000 µg/mL [1]	Antibacterial activity in words [2]	inhibition at 20 µM [3]	IC50 [4, 5]	inhibition at 20 µM [4, 5]	IC50 [3]	Selectivity BChE/AChE [4]	zone of inhibition at 1000 µg/mL [2]	BChE % of Inhibition (Conc. 20 μM) ([4]; 20 μM, average ± standard error (n = 3))
O=C1C(=O)N(Cc2cn(CCOc3cc(=O)oc4ccccc34)nn2)c2ccccc21 [Compound 6a1, 1-((1-(2-((2-oxo-2H-chromen-4-yl)oxy)ethyl)-1H-1,2,3-triazol-4-yl)methyl)indoline-2,3-dione]	6.08 ± 1.19 mm	failed to exhibit significant activity	29.3 ± 2.14%	6.08 ± 1.19 µM	72.8 ± 2.17%				
O=C1C(=O)N(Cc2cn(CCOc3cc(=O)oc4ccccc34)nn2)c2ccc(F)cc21 [Compound 6a2, 5-fluoro-1-((1-(2-((2-oxo-2H-chromen-4-yl)oxy)ethyl)-1H-1,2,3-triazol-4-yl)methyl)indoline-2,3-dione]	9.16 ± 1.69 mm	failed to exhibit significant activity	11.8 ± 1.18%	9.16 ± 1.69 µM	66.2 ± 5.18%				
O=C1C(=O)N(Cc2cn(CCOc3cc(=O)oc4ccccc34)nn2)c2ccc(Cl)cc21 [Compound 6a3, 5-chloro-1-((1-(2-((2-oxo-2H-chromen-4-yl)oxy)ethyl)-1H-1,2,3-triazol-4-yl)methyl)indoline-2,3-dione]	10.6 ± 1.13 mm		5.57 ± 1.19%	10.6 ± 1.13 µM	62.6 ± 6.19%				
O=C1C(=O)N(Cc2cn(CCCOc3cc(=O)oc4ccccc34)nn2)c2ccccc21 [Compound 6b1, 1-((1-(3-((2-oxo-2H-chromen-4-yl)oxy)propyl)-1H-1,2,3-triazol-4-yl)methyl)indoline-2,3-dione]	8.52 ± 1.28 mm		69.2 ± 4.27%	8.52 ± 1.28 µM	69.2 ± 5.27%	18.2 ± 1.19 µM	2.13		
O=C1C(=O)N(Cc2cn(CCCOc3cc(=O)oc4ccccc34)nn2)c2ccc(F)cc21 [Compound 6b2, 5-fluoro-1-((1-(3-((2-oxo-2H-chromen-4-yl)oxy)propyl)-1H-1,2,3-triazol-4-yl)methyl)indoline-2,3-dione]	5.9 ± 1.09 mm	only modest antibacterial effect	44.3 ± 5.69%	5.9 ± 1.09 µM	75.5 ± 5.69%			9.33 ± 4.04 mm	
O=C1C(=O)N(Cc2cn(CCCOc3cc(=O)oc4ccccc34)nn2)c2ccc(Cl)cc21 [Compound 6b3, 5-chloro-1-((1-(3-((2-oxo-2H-chromen-4-yl)oxy)propyl)-1H-1,2,3-triazol-4-yl)methyl)indoline-2,3-dione]	11.2 ± 1.16 mm	only modest antibacterial effect	31.5 ± 3.24%	11.3 ± 1.16 µM	61.6 ± 7.24%			10.3 ± 1.15 mm	
O=C1C(=O)N(Cc2cn(CCCOc3cc(=O)oc4ccccc34)nn2)c2ccc(I)cc21 [Compound 6b5, 5-iodo-1-((1-(3-((2-oxo-2H-chromen-4-yl)oxy)propyl)-1H-1,2,3-triazol-4-yl)methyl)indoline-2,3-dione]	14.8 ± 1.44 mm	largely inactive	27.6 ± 1.49%	14.8 ± 1.44 µM	61.6 ± 7.49%				
O=C1C(=O)N(Cc2cn(CCCCOc3cc(=O)oc4ccccc34)nn2)c2ccc(F)cc21 [Compound 6c2, 5-fluoro-1-((1-(4-((2-oxo-2H-chromen-4-yl)oxy)butyl)-1H-1,2,3-triazol-4-yl)methyl)indoline-2,3-dione]	5.51 ± 1.38 mm	only weak antibacterial activity	61 ± 3.49%	5.51 ± 1.38 µM	79.1 ± 5.49%	17.1 ± 1.65 µM	3.11	12 ± 2.65 mm	
Cc1ccc2c(c1)C(=O)C(=O)N2Cc1cn(CCCCOc2cc(=O)oc3ccccc23)nn1 [Compound 6c7, 5-methyl-1-((1-(4-((2-oxo-2H-chromen-4-yl)oxy)butyl)-1H-1,2,3-triazol-4-yl)methyl)indoline-2,3-dione]		largely inactive	12.1 ± 1.26%		< 11%				10.32 ± 1.53%
